The target in experiment [1] is trypsin (Homo sapiens, UniProt P07477). Nature of the experiment: Enzyme inhibition assay, trypsin (chromogenic substrate pefachrome-TRY). Particulars: for trypsin pKi: room temperature, 0.1M phosphate buffer, pH7.4.
Experiment [2] concerns the target human factor Xa (Homo sapiens, UniProt P00742). The experiment can be described thus: Enzyme inhibition assay, factor Xa (chromogenic substrate pefachrome-FXA). Conditions: for FXa pKi: room temperature, 0.1M phosphate buffer, pH7.4.
Experiment [3] has as its target thrombin (Homo sapiens, UniProt P00734). Nature of the experiment: Enzyme inhibition assay, thrombin (chromogenic substrate pefachrome-TH). Particulars: for thrombin pKi: room temperature, 0.1M phosphate buffer, pH7.4.
Experiment [4] deals with plasma. The experiment can be described thus: Kaolin Activated Partial Thromboplastin Time Test (APTT). It counts as biochemical. Conditions: 37°. As to the method: Kaolin Activated Partial Thromboplastin Time Test Protocol
(§1) Venous blood was collected into 3.2% (0.109 m) trisodium citrate vacutainer tubes at 1 volume of anticoagulant to nine volumes of blood.
(§2) The blood cells were separated by centrifugation at 700 g for ten minutes to yield plasma, which was frozen at […] until required.
(§3) To perform the test, 100 μl of plasma was pipetted into in a glass test tube, 1 μl of test compound in DMSO was added, and allowed to warm to 37° over two minutes.
100 μl of APTT reagent resuspended in Owren's buffer (Thrombosis Reference Centre University of Manchester, withington Hospital, Manchester) was added, mixed thoroughly, and 100 μl of prewarmed kaolin suspension in Owren's buffer added.
This mixture was incubated for ten minutes at 37°, with regular gentle mixing by tilting through a 90° angle, three times sequentially at one minute intervals to maintain the kaolin in suspension.
After ten minutes 100 μl of 25 mM calcium chloride solution was added, the suspension redispersed by mixing as above and the time to clot formation recorded.
(§4) Data from a series of observations and test compound concentrations are analysed by a SAS statistical analysis program and a CT2 (Concentration required to double clotting time) for each compound is generated.

The subject of experiment [5] is plasma. Nature of the experiment: Partial Thromboplastin Time Test (PT, tissue thromboplastin reagent). Conditions: Manchester (tissue thromboplasin) reagent, 37°. Type of experiment: biochemical. The protocol: Partial Thromboplastin Time Test Protocol
as §1, §2, §3
100 μl of warm (37°) Manchester (tissue thromboplasin) reagent (Helena Biosciences, UK) was added, allowed to equilibrate for sixty seconds. 100 μl of warm (37°) 25 mM calcium chloride solution was added to initiate clotting.
The test tube was tilted three times through a 90° angle every five seconds to mix the reagents and the time to clot formation recorded.
as §4

human factor Xa, sequence (P00742 235-488 limits assumed): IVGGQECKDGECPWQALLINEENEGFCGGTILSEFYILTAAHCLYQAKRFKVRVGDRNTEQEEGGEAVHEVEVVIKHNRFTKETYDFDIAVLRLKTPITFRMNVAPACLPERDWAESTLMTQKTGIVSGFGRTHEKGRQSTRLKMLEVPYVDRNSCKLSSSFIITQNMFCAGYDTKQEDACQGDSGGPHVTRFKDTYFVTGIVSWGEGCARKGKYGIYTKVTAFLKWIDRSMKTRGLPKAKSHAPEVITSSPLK
human factor Xa, sequence (P00742 41-179 partner limits assumed): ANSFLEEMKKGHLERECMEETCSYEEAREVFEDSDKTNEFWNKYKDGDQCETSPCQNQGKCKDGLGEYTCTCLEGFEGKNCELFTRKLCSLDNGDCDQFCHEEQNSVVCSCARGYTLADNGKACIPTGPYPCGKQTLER

Usually Ki stands for the equilibrium dissociation constant of an inhibitor or competing ligand from its target. A high value points to a looser hold on the target. As for `N=C(N)c1ccc(N)c(C(=O)N[C@@H](C(=O)NCC2CCC(CN)CC2)c2ccccc2)c1` (mixture of isomers) [Example 89, 2-Amino-5-amidinobenzoyl-D-phenylglycine-4-amlnomethylcyclohexyl methylamide], the inhibitory constant (Ki) in experiment [1] is 245 nM; in experiment [2], 14.1 nM; in experiment [3], 1020 nM.

With `CC(C)[C@@H](NC(=O)[C@H](NC(=O)c1cccc(C(=N)N)c1)c1ccccc1)C(N)=O` [Example 37, 3-Amidino-benzoyl-D-phenylglycinyl-D-valine amide], the inhibition constant (Ki) was 1450 nM in experiment [1], 162 nM in experiment [2] and 17000 nM in experiment [3]. Moreover, in experiment [4], the “APTT CT2 (Concentration required to double clotting time)” value (shortened to “APTT CT2”) is 36 µM. The “PT CT2 (Concentration required to double clotting time)” value (“PT CT2” below) in experiment [5] came to 15 µM.

Take “3-Amidino-benzoyl-D-phenylglycinyl-D-2-naphthylalaninyl-D-proline [Example 33]”: in experiment [1], the “trypsin pKi” value is given as 6.39. Also, the “FXa pKi” value in experiment [2] worked out at 7.50. Also, in experiment [3], the “thrombin pKi” value came to 6.14. The “PT CT2” value in experiment [5] was 7.1 µM.

With `CC(=N)N1CCC(CCOC(=O)[C@H](NC(=O)c2cccc(C(=N)N)c2)c2ccccc2)CC1` [Example 84, 3-Amidino-benzoyl-D-phenylglycine-2-(N-acetimino-4-piperidinyl) ethyl ester], the Ki in experiment [1] was 2450 nM; in experiment [2], 10.5 nM; in experiment [3] it was 9120 nM. In addition, the “APTT CT2” value in experiment [4] turned out to be 5.8 µM. Moreover, in experiment [5], the “PT CT2” value came to 1.9 µM.

For the molecule `Cc1ccc(CNC(=O)[C@H](NC(=O)c2cccc(C(=N)N)c2)c2ccccc2)cc1` [Example 64, 3-Amidino-benzoyl-D-phenylglycine-4-methylbenzylamide], the Ki in experiment [1] was 1230 nM; in experiment [2] it was 87.1 nM. In addition, in experiment [4], the “APTT CT2” value was 7.6 µM. For the same molecule, in experiment [3], the “thrombin pKi” value is on record as 5.72. Also, the “PT CT2” value in experiment [5] was determined as 8.3 µM.

As to `N=C(N)c1cccc(C(=O)N[C@@H](C(=O)NCc2cccc3ccccc23)c2ccccc2)c1` [Example 65, 3-Amidino-benzoyl-D-phenylglycine-1-naphthylmethylamide], the values for the inhibitory constant (Ki) in experiment [1], in experiment [2] and in experiment [3] were 1620 nM, 64.6 nM and 1170 nM, respectively.

Take `C[C@@H](NC(=O)[C@H](NC(=O)c1cccc(C(=N)N)c1)c1ccccc1)c1cccc2ccccc12` [Example 80, 3-Amidino-benzoyl-D-phenylglycine-R-1-(1-naphthyl)ethylamide]: the inhibition constant Ki in experiment [1] was 1860 nM; in experiment [2], 269 nM; in experiment [3], 6920 nM.

Consider “3-Amidino-benzoyl-D-phenylglycinyl-D-2-naphthylalaninyl-glycine [Example 31]”, for which the “trypsin pKi” value in experiment [1] is given as 5.56. The “FXa pKi” value in experiment [2] is given as 6.80. The “APTT CT2” value in experiment [4] was 3.7 µM. In addition, the “thrombin pKi” value in experiment [3] amounted to 6.98. Besides, in experiment [5], the “PT CT2” value turned out to be 3.2 µM.

Turning to “3-Amidino-benzoyl-D-phenylglycinyl-D-phenylalanine-N-pyrrolidinamide [Example 66]”, in experiment [1], the “trypsin pKi” value stood at 6.55. Also, the “FXa pKi” value in experiment [2] is 6.94. Further, in experiment [4], the “APTT CT2” value turned out to be 4.5 µM. Moreover, in experiment [3], the “thrombin pKi” value came to 6.66. In addition, the “PT CT2” value in experiment [5] was determined as 4.6 µM.

Regarding `N=C(N)c1cccc(C(=O)NC(C(=O)NCC2CCC(CN)CC2)c2ccc3ccccc3c2)c1` (racemic) [Example 12, 3-Amidino-benzoyl-DL-2-naphthylglycine 4-aminomethylcyclohexyl methylamide], the inhibitory constant (Ki) is 794 nM in experiment [1], 407 nM in experiment [2] and 5370 nM in experiment [3]. Also, the “APTT CT2” value in experiment [4] turned out to be 6.5 µM. Besides, the “PT CT2” value in experiment [5] came out at 3.4 µM.

`N=C(N)c1cccc(C(=O)N[C@@H](C(=O)OCCC2CCN(C(=N)N)CC2)c2ccccc2)c1` [Example 87, 3-Amidino-benzoyl-D-phenylglycine-2-(N-amidino-4-piperidinyl) ethyl ester]: the figures for the inhibition constant (Ki) in experiment [1] and in experiment [2] were 1290 nM and 24 nM, respectively. Besides, in experiment [4], the “APTT CT2” value worked out at 14 µM. Also, the “thrombin pKi” value in experiment [3] stood at 5.10. Besides, in experiment [5], the “PT CT2” value was determined as 4.2 µM.

For `N=C(N)c1cccc(C(=O)N[C@@H](C(=O)N2CCC(C(=O)c3ccccc3)CC2)c2ccccc2)c1` [Example 63, 3-Amidino-benzoyl-D-phenylglycine-4-benzoyl piperidinamide], the inhibition constant (Ki) is 288 nM in experiment [1] and 1100 nM in experiment [3]. Moreover, the “PT CT2” value in experiment [5] came out at 3.7 µM.

For the molecule `N=C(N)c1cccc(C(=O)N[C@@H](C(=O)NC2C3CC4CC(C3)CC2C4)c2ccccc2)c1` (stereo partly drawn) [Example 68, 3-Amidino-benzoyl-D-phenylglycine-2adamantylamide], the inhibition constant (Ki) in experiment [1] is 2570 nM; in experiment [2], 97.7 nM; in experiment [3], 4790 nM. Moreover, in experiment [5], the “PT CT2” value was 17 µM.

With “3-Amidino-benzoyl-D-phenylglycinyl-D-2-naphthylalaninyl N-methylglycine [Example 32]”, the “trypsin pKi” value in experiment [1] stood at 5.65. In addition, the “FXa pKi” value in experiment [2] is given as 7.39. Moreover, the “APTT CT2” value in experiment [4] came out at 7.4 µM. For the same molecule, the “thrombin pKi” value in experiment [3] is given as 6.09. In experiment [5], the “PT CT2” value amounted to 5.6 µM.

In the case of “3-Amidino-benzoyl-D-phenylglycinyl-D-2-naphthylalanine amide [Example 36]”, the “trypsin pKi” value in experiment [1] worked out at 6.16. Further, the “FXa pKi” value in experiment [2] turned out to be 7.12. Moreover, the “APTT CT2” value in experiment [4] came to 9.4 µM. In experiment [3], the “thrombin pKi” value is reported as 6.24. For the same molecule, the “PT CT2” value in experiment [5] turned out to be 9 µM.

The record behind these values is patent US7928137B2, “Meta-benzamidine derivatives as serine protease inhibitors” (Tularik Limited, priority 1997, dated 2011).
